Measurements published in US7491819B1 (priority 2004, dated 2009).
Like-named read-outs stand apart in the source and are kept apart here.

Key:
HIV-integrase = biological target: T1, HIV-integrase (Human immunodeficiency virus type 1 group M subtype B, UniProt P12497); test: HIV-Integrase Inhibition Activity (SPA bead strand-transfer assay); format: biochemical
T1 construct: Recombinant integrase (0.26 ng) was incubated with the beads
In short: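 Strand-transfer read-out: CPM from P33-labelled target DNA (0.1 fmol) joined to bead-bound biotin substrate DNA (5 pmole), with EDTA stop at 10 mM final. Integrase (0.26 ng) prebound to streptavidin SPA beads 90 min, 37° C, and washed before adding inhibitor.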

NL-Rluc virus = test: Inhibition of HIV replication (recombinant NL-Rluc virus, luciferase); format: cell-based; conditions: Human immunodeficiency virus 1, read-out: Inhibition of HIV replication
[1] = Table 1, read-out: Activity (HIV-integrase inhibition, IC50 class)
[2] = Table 2a, read-out: HIV-Integrase Inhibition Activity

Structure (SMILES): O=C(NCc1ccc(F)cc1)c1nc2n(c(=O)c1O)CCOC2 [Example 1, Pyrimido[2,1-c][1,4]oxazine-2-carboxamide, N-[(4-fluorophenyl)methyl]-4,6,7,9-tetrahydro-3-hydroxy-4-oxo-]
- melting point: 211 °C
- IC50 (HIV-integrase; [1]): 2 to 100 nM

Structure (SMILES): Cc1cc(CNC(=O)c2nc3n(c(=O)c2O)CCOC3)ccc1F [Example 2, Pyrimido[2,1-c[]1,4]oxazine-2-carboxamide, N-[(4-fluoro-3-methylphenyl)methyl]-4,6,7,9-tetrahydro-3-hydroxy-4-oxo-]
- melting point: 206 to 208 °C
- IC50 (HIV-integrase; [1]): 2 to 100 nM

Structure (SMILES): CC1OCCn2c1nc(C(=O)NCc1ccc(F)cc1)c(O)c2=O (centres unmarked) [Example 4, Pyrimido[2,1-c][1,4]oxazine-2-carboxamide, N-[(4-fluorophenyl)methyl]-4,6,7,9-tetrahydro-3-hydroxy-9-methyl-4-oxo-]
- melting point: 165 to 167 °C
- IC50 (HIV-integrase; [1]): 2 to 100 nM

Structure (SMILES): Cc1cc(CNC(=O)c2nc3n(c(=O)c2O)CCOC3C)ccc1F (centres unmarked) [Example 5, Pyrimido[2,1-c][1,4]oxazine-2-carboxamide, N-[(4-fluoro-3-methylphenyl)methyl]-4,6,7,9-tetrahydro-3-hydroxy-9-methyl-4-oxo-]
- melting point: 134 °C
- IC50 (HIV-integrase; [1]): 2 to 100 nM

Structure (SMILES): CC1OCCn2c1nc(C(=O)NCc1ccc(Cl)c(Cl)c1)c(O)c2=O (centres unmarked) [Example 6, Pyrimido[2,1-c][1,4]oxazine-2-carboxamide, N-[(3,4-dichlorophenyl)methyl]-4,6,7,9-tetrahydro-3-hydroxy-9-methyl-4-oxo-]
- melting point: 192 °C
- IC50 (HIV-integrase; [1]): 2 to 100 nM

Structure (SMILES): CC1OCCn2c1nc(C(=O)NCc1ccc(F)c(Cl)c1)c(O)c2=O (centres unmarked) [Example 7, Pyrimido[2,1-c][1,4]oxazine-2-carboxamide, N-[(3-chloro-4-fluorophenyl)methyl]-4,6,7,9-tetrahydro-3-hydroxy-9-methyl-4-oxo-]
- melting point: 172 °C
- IC50 (HIV-integrase; [1]): 2 to 100 nM

Structure (SMILES): COc1ncccc1-c1cc(F)ccc1CNC(=O)c1nc2n(c(=O)c1O)CCOC2(C)C [Example 76, Pyrimido[2,1-c][1,4]oxazine-2-carboxamide, N-[[4-fluoro-2-(2-methoxy-3-pyridinyl)phenyl]methyl]-4,6,7,9-tetrahydro-3-hydroxy-9,9-dimethyl-4-oxo-]
- melting point: 227 °C
- IC50 (HIV-integrase; [1]): 2 to 100 nM

Structure (SMILES): CCOP(=O)(OCC)c1cc(F)ccc1CNC(=O)c1nc2n(c(=O)c1O)CCOC2(C)C [Example 213, Phosphonic acid, [5-fluoro-2-[[[(4,6,7,9-tetrahydro-3-hydroxy-9,9-dimethyl-4-oxopyrimido[2,1-c][1,4]oxazin-2-yl)carbonyl]amino]methyl]phenyl]-, diethyl ester]
- melting point: 124 °C
- IC50 (HIV-integrase; [1]): 2 to 100 nM

Structure (SMILES): CCC1OCCn2c1nc(C(=O)NCc1ccc(F)cc1-n1cnc(C)n1)c(O)c2=O (centres unmarked) [Example 284, Pyrimido[2,1-c][1,4]oxazine-2-carboxamide, 9-ethyl-N-[[4-fluoro-2-(3-methyl-1H-1,2,4-triazol-1-yl)phenyl]methyl]-4,6,7,9-tetrahydro-3-hydroxy-4-oxo-e]
- melting point: 213 °C
- IC50 (HIV-integrase; [2]): 2 to 100 nM
- EC50 (NL-Rluc virus): 3 to 100 nM

Structure (SMILES): Cn1ccc(-c2cc(F)ccc2CNC(=O)c2nc3n(c(=O)c2O)CCOC3(C)C)n1 [Example 286, Pyrimido[2,1-c][1,4]oxazine-2-carboxamide, N-[[4-fluoro-2-(1-methyl-1H-pyrazol-3-yl)phenyl]methyl]-4,6,7,9-tetrahydro-3-hydroxy-9,9-dimethyl-4-oxo-]
- melting point: 220 °C
- IC50 (HIV-integrase; [2]): 2 to 100 nM
- EC50 (NL-Rluc virus): 3 to 100 nM

Structure (SMILES): Cn1nccc1-c1cc(F)ccc1CNC(=O)c1nc2n(c(=O)c1O)CCOC2(C)C [Example 287, Pyrimido[2,1-c][1,4]oxazine-2-carboxamide, N-[[4-fluoro-2-(1-methyl-1H-pyrazol-5-yl)phenyl]methyl]-4,6,7,9-tetrahydro-3-hydroxy-9,9-dimethyl-4-oxo-]
- melting point: 221 °C
- IC50 (HIV-integrase; [2]): 2 to 100 nM
- EC50 (NL-Rluc virus): 3 to 100 nM

Structure (SMILES): Cc1ncn(-c2ccccc2CNC(=O)c2nc3n(c(=O)c2O)CCOC3(C)C)n1 [Example 288, Pyrimido[2,1-c][1,4]oxazine-2-carboxamide, 4,6,7,9-tetrahydro-3-hydroxy-9,9-dimethyl-N-[[2-(3-methyl-1H-1,2,4-triazol-1-yl)phenyl]methyl]-4-oxo-e]
- melting point: 234 °C (dec.)
- IC50 (HIV-integrase; [2]): 2 to 100 nM
- EC50 (NL-Rluc virus): 3 to 100 nM

Structure (SMILES): CC1(C)OCCn2c1nc(C(=O)NCc1ccc(F)cc1-n1ncnc1CO)c(O)c2=O [Example 308, Pyrimido[2,1-c][1,4]oxazine-2-carboxamide, N-[[4-fluoro-2-[5-(hydroxymethyl)-1H-1,2,4-triazol-1-yl]phenyl]methyl]-4,6,7,9-tetrahydro-3-hydroxy-9,9-dimethyl-4-oxo-]
- IC50 (HIV-integrase; [2]): 2 to 100 nM
- EC50 (NL-Rluc virus): 3 to 100 nM

Structure (SMILES): CC(=O)OCCSc1cc(F)ccc1CNC(=O)c1nc2n(c(=O)c1O)CCOC2(C)C [Example 309, Pyrimido[2,1-c][1,4]oxazine-2-carboxamide, N-[[2-[[2-(acetyloxy)ethyl]thio]-4-fluorophenyl]methyl]-4,6,7,9-tetrahydro-3-hydroxy-9,9-dimethyl-4-oxo-]
- IC50 (HIV-integrase; [2]): 2 to 100 nM
- EC50 (NL-Rluc virus): 3 to 100 nM

Structure (SMILES): CC(=O)OCCS(=O)(=O)c1cc(F)ccc1CNC(=O)c1nc2n(c(=O)c1O)CCOC2(C)C [Example 310, Pyrimido[2,1-c][1,4]oxazine-2-carboxamide, N-[[2-[[2-(acetyloxy)ethyl]sulfonyl]-4-fluorophenyl]methyl]-4,6,7,9-tetrahydro-3-hydroxy-9,9-dimethyl-4-oxo-]
- IC50 (HIV-integrase; [2]): 2 to 100 nM
- EC50 (NL-Rluc virus): 3 to 100 nM

Structure (SMILES): CCSc1cc(F)ccc1CNC(=O)c1nc2n(c(=O)c1O)CCOC2(C)C [Example 311, Pyrimido[2,1-c][1,4]oxazine-2-carboxamide, N-[[2-(ethylthio)-4-fluorophenyl]methyl]-4,6,7,9-tetrahydro-3-hydroxy-9,9-dimethyl-4-oxo-]
- IC50 (HIV-integrase; [2]): 2 to 100 nM
- EC50 (NL-Rluc virus): 3 to 100 nM

Structure (SMILES): CC1(C)OCCn2c1nc(C(=O)NCc1ccc(F)cc1S(=O)(=O)CCO)c(O)c2=O [Example 312, Pyrimido[2,1-c][1,4]oxazine-2-carboxamide, N-[[4-fluoro-2-[(2-hydroxyethyl)sulfonyl]phenyl]methyl]-4,6,7,9-tetrahydro-3-hydroxy-9,9-dimethyl-4-oxo-]
- IC50 (HIV-integrase; [2]): 2 to 100 nM
- EC50 (NL-Rluc virus): 3 to 100 nM

Structure (SMILES): CCC1(C)OCCn2c1nc(C(=O)NCc1ccc(F)cc1S(C)(=O)=O)c(O)c2=O (centres unmarked) [Example 314, Pyrimido[2,1-c][1,4]oxazine-2-carboxamide, 9-ethyl-N-[[4-fluoro-2-(methylsulfonyl)phenyl]methyl]-4,6,7,9-tetrahydro-3-hydroxy-9-methyl-4-oxo-]
- IC50 (HIV-integrase; [2]): 2 to 100 nM
- EC50 (NL-Rluc virus): 3 to 100 nM

Structure (SMILES): CCC1(C)OCCn2c1nc(C(=O)NCc1ccc(F)cc1S(=O)(=O)N(C)C)c(O)c2=O (centres unmarked) [Example 315, Pyrimido[2,1-c][1,4]oxazine-2-carboxamide, N-[[2-[(dimethylamino)sulfonyl]-4-fluorophenyl]methyl]-9-ethyl-4,6,7,9-tetrahydro-3-hydroxy-9-methyl-4-oxo-]
- IC50 (HIV-integrase; [2]): 2 to 100 nM
- EC50 (NL-Rluc virus): 3 to 100 nM

Structure (SMILES): Cc1ncnn1-c1cc(F)ccc1CNC(=O)c1nc2n(c(=O)c1O)CCCOC2(C)C [Example 316, 6H-Pyrimido[2,1-c][1,4]oxazepine-2-carboxamide, N-[[4-fluoro-2-(5-methyl-1H-1,2,4-triazol-1-yl)phenyl]methyl]-4,7,8,10-tetrahydro-3-hydroxy-10,10-dimethyl-4-oxo-]
- IC50 (HIV-integrase; [2]): 2 to 100 nM
- EC50 (NL-Rluc virus): 3 to 100 nM

Structure (SMILES): Cc1ncn(-c2cc(F)ccc2CNC(=O)c2nc3n(c(=O)c2O)CCCOC3(C)C)n1 [Example 317, 6H-Pyrimido[2,1-c][1,4]oxazepine-2-carboxamide, N-[[4-fluoro-2-(3-methyl-1H-1,2,4-triazol-1-yl)phenyl]methyl]-4,7,8,10-tetrahydro-3-hydroxy-10,10-dimethyl-4-oxo-]
- IC50 (HIV-integrase; [2]): 2 to 100 nM
- EC50 (NL-Rluc virus): 3 to 100 nM

Structure (SMILES): COP(=O)(OC)c1cc(F)ccc1CNC(=O)c1nc2n(c(=O)c1O)CCCOC2(C)C [Example 318, Phosphonic acid, [5-fluoro-2-[[[(4,7,8,10-tetrahydro-3-hydroxy-10,10-dimethyl-4-oxo-6H-pyrimido[2,1-c][1,4]oxazepin-2-yl)carbonyl]amino]methyl]phenyl]-, dimethyl ester]
- IC50 (HIV-integrase; [2]): 2 to 100 nM
- EC50 (NL-Rluc virus): 3 to 100 nM

Structure (SMILES): Cc1nc(C)n(-c2cc(F)ccc2CNC(=O)c2nc3n(c(=O)c2O)CCCOC3(C)C)n1 [Example 319, 6H-Pyrimido[2,1-c][1,4]oxazepine-2-carboxamide, N-[[2-(3,5-dimethyl-1H-1,2,4-triazol-1-yl)-4-fluorophenyl]methyl]-4,7,8,10-tetrahydro-3-hydroxy-10,10-dimethyl-4-oxo-]
- IC50 (HIV-integrase; [2]): 2 to 100 nM
- EC50 (NL-Rluc virus): 3 to 100 nM
